# Laboratory results from ChEMBL document CHEMBL1268823, “Bernthsen synthesis, antimicrobial activities and cytotoxicity of acridine derivatives” (Bioorg Med Chem Lett, 2010).
# Tests used:
# Staphylococcus aureus = experiment: Antimicrobial activity against Staphylococcus aureus by agar plate disk diffusion method; type: functional
# Streptococcus pyogenes = experiment: Antimicrobial activity against Streptococcus pyogenes by agar plate disk diffusion method; type: functional
# Escherichia coli = experiment: Antimicrobial activity against Escherichia coli by agar plate disk diffusion method; type: functional
# Pseudomonas aeruginosa = experiment: Antimicrobial activity against Pseudomonas aeruginosa by agar plate disk diffusion method; type: functional
# Aspergillus niger = experiment: Antifungal activity against Aspergillus niger by agar plate disk diffusion method; type: functional
# HEp-2 = experiment: Cytotoxicity against human Hep2 cells by MTT assay; type: functional, cell-based
# HL-60 = experiment: Cytotoxicity against human HL60 cells by MTT assay; type: functional, cell-based
# HEK-293T = experiment: Cytotoxicity against human HEK293T cells by MTT assay; type: functional, cell-based
compound,measurement,setting,value
O=c1cc(Cc2c3ccccc3nc3ccccc23)c2cc(Cl)ccc2o1,MIC,Staphylococcus aureus,250 µg/mL
same,MIC,Streptococcus pyogenes,75 µg/mL
same,MIC,Escherichia coli,75 µg/mL
same,MIC,Pseudomonas aeruginosa,25 µg/mL
same,MIC,Aspergillus niger,1000 µg/mL
same,IC50,HEp-2,> 100 µM
same,IC50,HL-60,28.7 µM
same,IC50,HEK-293T,> 100 µM
O=C(O)c1cn(C2CC2)c2cc(N3CCNCC3)c(F)cc2c1=O [CIPROFLOXACIN],MIC,Staphylococcus aureus,50 µg/mL
same,MIC,Streptococcus pyogenes,50 µg/mL
same,MIC,Escherichia coli,25 µg/mL
O=P1(N(CCCl)CCCl)NCCCO1 (stereo not drawn) [CYCLOPHOSPHAMIDE ANHYDROUS],IC50,HEp-2,> 100 µM
same,IC50,HL-60,8.79 µM
same,IC50,HEK-293T,> 100 µM
Cc1ccc2oc(=O)cc(Cc3c4ccccc4nc4ccccc34)c2c1,MIC,Staphylococcus aureus,125 µg/mL
same,MIC,Streptococcus pyogenes,100 µg/mL
same,MIC,Escherichia coli,125 µg/mL
same,MIC,Pseudomonas aeruginosa,125 µg/mL
same,MIC,Aspergillus niger,500 µg/mL
same,IC50,HEp-2,> 100 µM
same,IC50,HL-60,> 100 µM
same,IC50,HEK-293T,> 100 µM
Cc1ccc2c(Cc3c4ccccc4nc4ccccc34)cc(=O)oc2c1,MIC,Staphylococcus aureus,500 µg/mL
same,MIC,Streptococcus pyogenes,50 µg/mL
same,MIC,Escherichia coli,150 µg/mL
same,MIC,Pseudomonas aeruginosa,62.5 µg/mL
same,MIC,Aspergillus niger,1000 µg/mL
same,IC50,HEp-2,> 100 µM
same,IC50,HL-60,> 100 µM
same,IC50,HEK-293T,> 100 µM
CC1(C)S[C@@H]2[C@H](NC(=O)[C@H](N)c3ccccc3)C(=O)N2[C@H]1C(=O)O [AMPICILLIN],MIC,Staphylococcus aureus,250 µg/mL
same,MIC,Streptococcus pyogenes,100 µg/mL
same,MIC,Escherichia coli,100 µg/mL
same,MIC,Pseudomonas aeruginosa,100 µg/mL
O=c1cc(Cc2c3ccccc3nc3ccccc23)c2ccc(Cl)cc2o1,MIC,Staphylococcus aureus,50 µg/mL
same,MIC,Streptococcus pyogenes,250 µg/mL
same,MIC,Escherichia coli,50 µg/mL
same,MIC,Pseudomonas aeruginosa,500 µg/mL
same,MIC,Aspergillus niger,1000 µg/mL
same,IC50,HEp-2,> 100 µM
same,IC50,HL-60,27.5 µM
same,IC50,HEK-293T,> 100 µM
O=c1cc(Cc2c3ccccc3nc3ccccc23)c2ccccc2o1,MIC,Staphylococcus aureus,250 µg/mL
same,MIC,Streptococcus pyogenes,250 µg/mL
same,MIC,Escherichia coli,250 µg/mL
same,MIC,Pseudomonas aeruginosa,250 µg/mL
same,MIC,Aspergillus niger,500 µg/mL
same,IC50,HEp-2,> 100 µM
same,IC50,HL-60,> 100 µM
same,IC50,HEK-293T,> 100 µM
O=c1cc(Cc2c3ccccc3nc3ccccc23)c2cc(O)ccc2o1,MIC,Staphylococcus aureus,500 µg/mL
same,MIC,Streptococcus pyogenes,250 µg/mL
same,MIC,Escherichia coli,50 µg/mL
same,MIC,Pseudomonas aeruginosa,100 µg/mL
same,IC50,HEp-2,> 100 µM
same,IC50,HL-60,> 100 µM
same,IC50,HEK-293T,> 100 µM
CCn1cc(C(=O)O)c(=O)c2cc(F)c(N3CCNCC3)cc21 [NORFLOXACIN],MIC,Staphylococcus aureus,10 µg/mL
same,MIC,Streptococcus pyogenes,10 µg/mL
same,MIC,Escherichia coli,10 µg/mL
same,MIC,Pseudomonas aeruginosa,10 µg/mL
O=c1cc(Cc2c3ccccc3nc3ccccc23)c2ccc([N+](=O)[O-])cc2o1,MIC,Staphylococcus aureus,250 µg/mL
same,MIC,Streptococcus pyogenes,500 µg/mL
same,MIC,Escherichia coli,100 µg/mL
same,MIC,Pseudomonas aeruginosa,200 µg/mL
same,MIC,Aspergillus niger,500 µg/mL
same,IC50,HEp-2,> 100 µM
same,IC50,HL-60,> 100 µM
same,IC50,HEK-293T,> 100 µM
O=C(N[C@H](CO)[C@H](O)c1ccc([N+](=O)[O-])cc1)C(Cl)Cl [CHLORAMPHENICOL],MIC,Staphylococcus aureus,50 µg/mL
same,MIC,Streptococcus pyogenes,50 µg/mL
same,MIC,Escherichia coli,50 µg/mL
same,MIC,Pseudomonas aeruginosa,50 µg/mL
O=c1cc(Cc2c3ccccc3nc3ccccc23)c2ccc(O)cc2o1,MIC,Staphylococcus aureus,500 µg/mL
same,MIC,Streptococcus pyogenes,500 µg/mL
same,MIC,Escherichia coli,200 µg/mL
same,MIC,Pseudomonas aeruginosa,250 µg/mL
same,MIC,Aspergillus niger,> 1000 µg/mL
same,IC50,HEp-2,> 100 µM
same,IC50,HL-60,> 100 µM
same,IC50,HEK-293T,> 100 µM
COC1=CC(=O)C[C@@H](C)[C@]12Oc1c(Cl)c(OC)cc(OC)c1C2=O [GRISEOFULVIN],MIC,Aspergillus niger,100 µg/mL
NYSTATIN,MIC,Aspergillus niger,100 µg/mL
